Here are results for eight molecules from US11124779B2, “Compositions and methods for treating and preventing pancreatitis, renal injury and cancer” (Yale University, priority 2014, dated 2021).

Series [1] deals with HK-2 cells. The series can be described thus: In vitro model of cisplatin toxicity: HK-2 cell survival by the WST-1 method. Format: cell-based, human. How it is done: FIG. 1B is a graph depicting the effect of renalase peptides on survival of HK-2 cells exposed to 20 μM cisplatin for 24 hrs; cell survival is depicted as % change in survival compared to that in cisplatin-treated HK-2 cells without renalase peptides; cell survival was measured by the WST-1 method; RP-A220: mutated RP-220, and RP-19 and RP-128: control peptides; peptide concentration (μg/ml) indicated in top line; n=4, *=p<0.05. […]
HK-2 cells (human proximal tubular line) obtained from ATTC (Manassas, Va., USA) were cultured in DMEM/F12 supplemented with glutamine, 10% FBS and antibiotics, and were maintained at 37° C. in 5% CO2. Cells were exposed to cisplatin (20 μM) in the presence or absence of recombinant renalase or renalase peptides for 24 hrs, and cell viability was assessed by the WST1 method (Roche Applied Science, Germany).
In general terms: Formazan colour is commonly taken as a measure of viable cells.

For series [2], the system named is HK-2 cells. The settings on record: Wang et al., 2014; cited from earlier work.
The test system of another series is MAPK signaling. The settings on record: Wang et al., 2014; cited from earlier work.
The test system of a further series is p38 MAPK. Briefly: MAPK signaling by immunoblot: p38 phosphorylation in HK-2 cells. Format: cell-based, human. As to conditions: cisplatin alone, 1-60 min. The text has this: (§1) FIGS. 2A-2C, depict how RP-220 alters the pattern of MAPK activation in cisplatin treated cells. FIG. 2A is an image of a gel depicting MAPK phosphorylation with cisplatin alone (CP) and with CP and RP-220; representative study: p-p38: phosphorylated p38 MAPK; p-ERK: phosphorylated ERK. FIG. 2B is a graph depicting quantification of ERK activation. Signals were normalized to glyceraldehyde 3-phosphate dehydrogenase (GAPDH) loading control; n=3, *=P<0.05. FIG. 2C is a graph depicting quantification of p38 activation, signals normalized to GAPDH loading control; n=3, *=P<0.05.
(§2) FIGS. 5A-5E, depict how PMCA4b inhibition abrogates renalase peptide mediated MAPK signaling and cytoprotection. […] is a series of panels depicting how PMCA4b inhibition abrogates RP-220 mediated ERK and p38 signaling in HK-2 cells; caloxin1b=peptide inhibitor of PMCA4; left panel: RP-220 mediated ERK and p38 activation, phospho=phosphorylated, representative blot; middle panel: inhibition of RP-220 mediated ERK and p38 activation by caloxin1b (100 μM); right panel: quantification of phosphorylated p38 (P-p38) and phosphorylated ERK (p-ERK); signals were normalized to glyceraldehyde 3-phosphate dehydrogenase (GAPDH) loading control; n=3, *=P<0.05. […]
On the technique in general: Immunoblotting shows a protein as a band on a membrane.

Another series concerns ERK. The series can be described thus: MAPK signaling by immunoblot: ERK phosphorylation in HK-2 cells. Format: cell-based, human. As to conditions: cisplatin alone, 1-60 min.
Excerpt: as §1, §2

The test system of series [3] is HK-2 cells. The series can be described thus: In vitro model of cisplatin toxicity: HK-2 cell survival by the WST-1 method. Format: cell-based, human. The settings on record: control conditions, no cisplatin.
Setting [4] is: 20 μM cisplatin, 24 hrs, WST-1, range of peptide concentrations.

Where a SMILES comes first, the peptide text is derived from it. Where no end group is shown, it is not given here.

As to “RP-19: control renalase peptide, SEQ ID NO: 1, LLRRQTSGPLYLAVWDKAED, acetylated at the amino terminus (Ac-LLRRQTSGPLYLAVWDKAED; listed as Homo sapiens)”, in the series on HK-2 cells [1] (setting [4]), the “survival of HK-2 cells exposed to cisplatin (protective effect)” value (“survival of HK-2 cells exposed” below) is reported as “did not improve cell survival”.

For “RP-Scr220: scrambled RP-220 control peptide, SEQ ID NO: 7, CSKRIFKVISSIEDNNERG (listed as Homo sapiens)”, the protection of cells result in the series on HK-2 cells [2] is given as “failed to protect cells”. For the same molecule, in the series on MAPK signaling, the “activation of MAPK signaling” value is “did not activate MAPK signaling”.

As to `N.N.[Cl][Pt][Cl]` [Cisplatin, cisplatin], in the series with p38 MAPK, the p38 phosphorylation result was “modestly increased”. Moreover, in the series on ERK, the ERK phosphorylation result is on record as “modestly increased”.

As to `C[S+]([O-])c1ccc(-c2nc(-c3ccncc3)c(-c3ccc(F)cc3)[nH]2)cc1` (stereo not shown) [SB203580, 4-[4′-Fluorophenyl]-2-[4′-methylsulfinylphenyl]-5-[4′-pyridyl]-imidazole, reference compound], in the series on HK-2 cells [3], the “survival of HK-2 cells with inhibitor alone” value is “did not adversely affect the survival”. In addition, the “effect of kinase inhibitor on protection by RP-220 against cisplatin” value in the series with HK-2 cells [1] (HK-2 cells, 20 μM cisplatin 24 hrs plus RP-220, SB203580 10 μM) was “completely abrogated”.

With “RP-128: control renalase peptide, SEQ ID NO: 2, FRHRVTQINLRDDKWEVSKQ, acetylated at the amino terminus (Ac-FRHRVTQINLRDDKWEVSKQ; listed as Homo sapiens)”, the “survival of HK-2 cells exposed” value with HK-2 cells [1] (setting [4]) was “did not improve cell survival”.

For the molecule “RP-224: renalase peptide, SEQ ID NO: 3, CVSIDNKKRNI, acetylated at the amino terminus (Ac-CVSIDNKKRNI; listed as Homo sapiens)”, the “survival of HK-2 cells exposed” value in the series on HK-2 cells [1] (20 μM cisplatin, 24 hrs, test substance 100 μg/ml) is recorded as “protected HK-2 cells to a similar degree”.

For “RP-A220: mutated RP-220, SEQ ID NO: 6, IRFVSIDNAAANIESSEIG (listed as Homo sapiens)”, the “survival of HK-2 cells exposed” value with HK-2 cells [1] (setting [4]) is recorded as “did not improve cell survival”; with HK-2 cells [1] (20 μM cisplatin, 24 hrs, test substance 80 μg/ml), “exacerbated cisplatin toxicity”.

`CC[C@H](C)[C@H](NC(=O)[C@H](CCC(=O)O)NC(=O)[C@H](CO)NC(=O)[C@H](CO)NC(=O)[C@H](CCC(=O)O)NC(=O)[C@@H](NC(=O)[C@H](CC(N)=O)NC(=O)[C@H](CCCNC(=N)N)NC(=O)[C@H](CCCCN)NC(=O)[C@H](CCCCN)NC(=O)[C@H](CC(N)=O)NC(=O)[C@H](CC(=O)O)NC(=O)[C@@H](NC(=O)[C@H](CO)NC(=O)[C@@H](NC(=O)[C@H](Cc1ccccc1)NC(=O)[C@H](CCCNC(=N)N)NC(=O)[C@@H](NC(=O)[C@H](CS)NC(C)=O)[C@@H](C)CC)C(C)C)[C@@H](C)CC)[C@@H](C)CC)C(=O)NCC(=O)O` [RP-220] (Ac-CIRFVSIDNKKRNIESSEIG-OH): the “protective effect against cisplatin cytotoxicity after down-regulation of PMCA4b expression” value in the series with HK-2 cells [1] (HK-2 cells, PMCA4b siRNA, 20 μM cisplatin 24 hrs, peptide 15 μg/ml) was “abrogated”. In the series with HK-2 cells [1] (dose response curve, 20 μM cisplatin, 24 hrs), the “relative potency at protecting HK-2 cells against cisplatin cytotoxicity (concentration dependent effects)” value was “equipotent”.
